What was measured:
[1] = system: human stomach cancer cells (MKN-45); assay: Experiment 6: pharmacokinetics of Cupid-scFv antibody (48 h before)+^211At-psyche-BR in MKN-45 cancer-bearing mouse models; type: in vivo, mice (BALB/cSlc nu/nu)
Method: The present experiment used human stomach cancer cells (MKN-45) expressing carcinoembryonic antigen (CEA). 9-week-old male immunodeficient mice (BALB/cSlc nu/nu) were used. MKN-45 cells (1×10^7/0.1 ml) were transplanted into the mice's subcutis on the right shoulder dorsal side to produce cancer-bearing mouse models. The mice were divided into four groups when the tumor volume became a predetermined size (on Day 12 after the transplantation), and the Cupid-scFv antibody was administered 100 μmol/0.1 ml via the caudal vein of each mouse. Forty-eight hours after administration of the Cupid-scFv antibody, […] (about 0.25 MBq/100 ml) was administered via the caudal vein of each mouse. One minute, 1 hour, 6 hours, and 24 hours after administration of the ^211At-psyche-BR, the mice were euthanized by collecting whole blood from the heart of each mouse under isoflurane anesthesia, and tumor tissues and normal tissues/organs were then excised. Normal tissues/organs: skin (lower right limb), muscle (right gastrocnemius muscle), heart, lung, spleen, pancreas, white fat (upper portion of right side testis), testis (both sides), stomach, stomach contents, small intestine (not including contents), large intestine (not including contents), liver, brown fat (interscapular), submandibular gland, thyroid gland (together with trachea), bone (right femur), cerebrum, eyeballs (both sides), bladder, and urine; the remaining residues were divided into three equal parts, and the three equal parts were defined to be residue-1, residue-2, and residue-3. After that, the weights of blood, plasma, urine, tumor, and normal tissues/organs were measured, and the radioactivity thereof was then measured using a γ counter. The amounts of the ^211At-psyche-BR (radioactivity) accumulated in the blood, plasma, urine, tumor, and normal tissues/organs were calculated. That is to say, the rates (% ID/g) of the ^211At-psyche-BR accumulated per unit weight (g) of the blood, plasma, urine, tumor, and normal tissues/organs, in the administered ^211At-psyche-BR were shown. Regarding accumulation of the ^211At-psyche-BR in the thyroid gland, since the weight of the thyroid gland could not be precisely measured, it was shown that the rate (% ID) of the ^211At-psyche-BR accumulated in the thyroid gland in the administered ^211At-psyche-BR.

[2] = system: human stomach cancer cells (MKN-45); assay: Experiment 2: pharmacokinetics of Cupid-scFv antibody (24 h before)+^211At-psyche-B in MKN-45 cancer-bearing mouse models; type: in vivo, mice (BALB/cSlc nu/nu)
Method: The present experiment used highly CEA-expressing human stomach cancer cells (MKN-45). 9-week-old male immunodeficient mice (BALB/cSlc nu/nu) were used. MKN-45 cells (1×10^7/0.1 ml) were transplanted into the mice's subcutis on the right shoulder dorsal side to produce MKN-45 cancer-bearing mouse models. The mice were divided into four groups when the tumor volume became a predetermined size (on Day 13 after the transplantation). A Cupid-scFv antibody was administered in 100 μmol/0.1 ml via the caudal vein of each mouse. Twenty-four hours after administration of the Cupid-scFv antibody, ^211At-psyche-B (about 0.25 MBq/100 ml) was administered via the caudal vein of the mice. One minute, 1 hour, 6 hours, and 24 hours after administration of the ^211At-psyche-B, the mice were euthanized by collecting whole blood from the heart of each mouse under isoflurane anesthesia, and tumor tissues and normal tissues/organs were then excised. Normal tissues/organs: skin (lower right limb), muscle (right gastrocnemius muscle), heart, lung, spleen, pancreas, white fat (upper portion of right side testis), testis (right side), stomach (without contents), small intestine, large intestine, liver, brown fat, submandibular gland, thyroid gland (together with trachea), bone (right femur), cerebrum, eyeballs (both sides), bladder, and urine; the remaining residues were divided into three equal parts, and the three equal parts were defined to be residue-1, residue-2, and residue-3. After that, the weights of blood, plasma, urine, tumor, and normal tissues/organs were measured, and the radioactivity thereof was then measured using a γ counter. The amounts of the ^211At-psyche-B (radioactivity) accumulated in the blood, plasma, urine, tumor, and normal tissues/organs were calculated. That is to say, the rates (% ID/g) of the ^211At-psyche-B accumulated per unit weight (g) of the blood, plasma, urine, tumor, and normal tissues/organs, in the administered ^211At-psyche-B, were shown. Regarding accumulation of the ^211At-psyche-B in the thyroid gland, since the weight of the thyroid gland could not be precisely measured, it was shown that the rate (% ID) of the ^211At-psyche-B accumulated in the thyroid gland in the administered ^211At-psyche-B.

N=C1N[C@H]2[C@H](CS[C@H]2CCCCNC(=O)CCCCCC(=O)Nc2cc(NC(=O)CCCCCC(=O)NCCCC[C@@H]3SC[C@@H]4NC(=N)N[C@@H]43)cc(C(=O)NCCOCCOCCNC(=O)c3cccc([211At])c3)c2)N1 [^211At-psyche-BR]
Accumulation in the blood ([1]; after 1 minute): 26.4±2.7 % ID/g
Accumulation in the kidney ([1]; after 1 minute): 81.7±11.8 % ID/g
Accumulation in the liver ([1]; after 1 minute): 31.5±4.3 % ID/g
Accumulation in the lung ([1]; after 1 minute): 9.5±0.4 % ID/g
Accumulation in the spleen ([1]; after 1 minute): 3.4±0.2 % ID/g
Accumulation in the tumor ([1]; after 1 minute): 0.5±0.0 % ID/g
tumor-to-blood ratio ([1]; after 1 minute): 0.02±0.00
tumor-to-muscle ratio ([1]; after 1 minute): 1.30±0.06
Accumulation in the blood ([1]; after 1 hour): 30.6±3.2 % ID/g
Accumulation in the kidney ([1]; after 1 hour): 54.5±4.0 % ID/g
Accumulation in the liver ([1]; after 1 hour): 19.8±1.3 % ID/g
Accumulation in the lung ([1]; after 1 hour): 12.7±0.6 % ID/g
Accumulation in the spleen ([1]; after 1 hour): 6.8±0.3 % ID/g
Accumulation in the tumor ([1]; after 1 hour): 3.2±0.5 % ID/g
tumor-to-blood ratio ([1]; after 1 hour): 0.10±0.01
tumor-to-muscle ratio ([1]; after 1 hour): 5.13±0.67
Accumulation in the blood ([1]; after 6 hours): 22.7±2.7 % ID/g
Accumulation in the kidney ([1]; after 6 hours): 15.0±2.3 % ID/g
Accumulation in the liver ([1]; after 6 hours): 18.7±2.7 % ID/g
Accumulation in the lung ([1]; after 6 hours): 7.5±3.3 % ID/g
Accumulation in the spleen ([1]; after 6 hours): 9.7±1.0 % ID/g
Accumulation in the tumor ([1]; after 6 hours): 9.3±1.4 % ID/g
tumor-to-blood ratio ([1]; after 6 hours): 0.42±0.11
tumor-to-muscle ratio ([1]; after 6 hours): 11.42±1.05
Accumulation in the thyroid gland ([1]; after 24 h): 0.19±0.03 % ID
Accumulation in the blood ([1]; after 24 hours): 1.6±1.0 % ID/g
Accumulation in the kidney ([1]; after 24 hours): 5.6±1.0%
Accumulation in the liver ([1]; after 24 hours): 8.9±1.7%
Accumulation in the lung ([1]; after 24 hours): 2.9±0.3%
Accumulation in the spleen ([1]; after 24 hours): 4.6±1.6%
Accumulation in the tumor ([1]; after 24 hours): 7.4±2.3%
administered amount excreted (blood) ([1]; after 24 hours): about 98%
tumor-to-blood ratio ([1]; after 24 hours): 5.39±1.56
tumor-to-muscle ratio ([1]; after 24 hours): 27.98±2.34

N=C1N[C@H]2[C@H](CS[C@H]2CCCCC(=O)NCCCCCC(=O)Nc2cc(NC(=O)CCCCCNC(=O)CCCC[C@@H]3SC[C@@H]4NC(=N)N[C@@H]43)cc(C(=O)NCCOCCOCCNC(=O)c3cccc([211At])c3)c2)N1 [^211At-psyche-B]
Accumulation in the kidney ([2]; after 1 minute): 29.3±1.5 % ID/g
Accumulation in the liver ([2]; after 1 minute): 17.4±2.3 % ID/g
Accumulation in the lung ([2]; after 1 minute): 15.9±1.7 % ID/g
Accumulation in the spleen ([2]; after 1 minute): 4.9±1.7 % ID/g
Accumulation in the tumor ([2]; after 1 minute): 0.6±0.1 % ID/g
Clearance from the blood ([2]; after 1 minute): 46.4±1.4 % ID/g
tumor-to-blood ratio ([2]; after 1 minute): 0.01±0.00
tumor-to-muscle ratio ([2]; after 1 minute): 1.5±0.3
Accumulation in the kidney ([2]; after 1 hour): 14.2±1.3 % ID/g
Accumulation in the liver ([2]; after 1 hour): 13.6±1.4 % ID/g
Accumulation in the lung ([2]; after 1 hour): 14.7±3.6 % ID/g
Accumulation in the spleen ([2]; after 1 hour): 7.9±1.1 % ID/g
Accumulation in the tumor ([2]; after 1 hour): 3.2±0.4 % ID/g
Clearance from the blood ([2]; after 1 hour): 40.6±3.2 % ID/g
tumor-to-blood ratio ([2]; after 1 hour): 0.08±0.01
tumor-to-muscle ratio ([2]; after 1 hour): 5.2±1.0
Accumulation in the kidney ([2]; after 6 hours): 9.8±0.7 % ID/g
Accumulation in the liver ([2]; after 6 hours): 16.0±1.4 % ID/g
Accumulation in the lung ([2]; after 6 hours): 11.2±0.9 % ID/g
Accumulation in the spleen ([2]; after 6 hours): 10.1±0.3 % ID/g
Accumulation in the tumor ([2]; after 6 hours): 11.8±1.5 % ID/g
Clearance from the blood ([2]; after 6 hours): 29.4±0.9 % ID/g
tumor-to-blood ratio ([2]; after 6 hours): 0.40±0.05
tumor-to-muscle ratio ([2]; after 6 hours): 14.0±0.9
Accumulation in the thyroid gland ([2]; after 24 h): 0.16±0.06 % ID
Accumulation in the kidney ([2]; after 24 hours): 4.7±0.8%
Accumulation in the liver ([2]; after 24 hours): 15.5±0.1%
Accumulation in the lung ([2]; after 24 hours): 4.2±0.5%
Accumulation in the spleen ([2]; after 24 hours): 9.6±2.4%
Accumulation in the tumor ([2]; after 24 hours): 16.3±4.1%
Clearance from the blood ([2]; after 24 hours): 6.2±1.3 % ID/g
administered amount excreted (blood) ([2]; after 24 hours): 94%
tumor-to-blood ratio ([2]; after 24 hours): 2.63±0.10
tumor-to-muscle ratio ([2]; after 24 hours): 26.5±4.6
